Results taken from the NIST ThermoML archive (doi:10.1021/je050353j).

Key:
[1] = relative permittivity at zero frequency (dimensionless); xn = mol fraction of the nth substance listed; details: 298.15 K, Liquid, Parallel plate capacitor
[2] = refractive index (Na D-line) (dimensionless); details: 298.15 K; 100 kPa; Liquid; Standard Abbe refractometry

OCCO [1,2-ethanediol] + O
relative permittivity at zero frequency, [1]
Details	100 kPa	50000 kPa	100000 kPa	150000 kPa	200000 kPa	250000 kPa	300000 kPa
x1 = 0.2	65.26	66.72	68.04	69.3	70.47	71.6	72.68
x1 = 0.4	56.38	57.74	58.96	60.14	61.19	62.23	63.22
x1 = 0.6	49.73	50.99	52.14	53.21	54.2	55.15	56.06
x1 = 0.8	44.76	45.95	47.04	48.05	49	49.89	50.72

O [water] + OCCO
[1], x2 = 0
Details	relative permittivity at zero frequency
100 kPa	78.39
50000 kPa	80.18
100000 kPa	81.88
150000 kPa	83.47
200000 kPa	85.01
250000 kPa	86.48
300000 kPa	87.94

OCCO [1,2-ethanediol]
Details	refractive index
[2]	1.4304

OCC(O)CO [glycerol]
Details	refractive index
[2]	1.4722

OCC(O)CO [glycerol] + O
relative permittivity at zero frequency, [1]
Details	100 kPa	50000 kPa	100000 kPa	150000 kPa	200000 kPa	250000 kPa	300000 kPa
x1 = 0.2	63.79	65.05	66.28	67.44	68.55	69.62	70.65
x1 = 0.4	55.26	56.37	57.44	58.46	59.43	60.37	61.28
x1 = 0.6	49.52	50.55	51.5	52.42	53.29	54.14	54.95
x1 = 0.8	45.48	46.43	47.33	48.18	48.99	49.77	50.53
